From ChEMBL document CHEMBL2440087, “Novel complex crystal structure of prolyl hydroxylase domain-containing protein 2 (PHD2): 2,8-Diazaspiro[4.5]decan-1-ones as potent, orally bioavailable PHD2 inhibitors” (Bioorg Med Chem, 2013)

What was measured:
Mus musculus [1] = experiment: Dose normalized AUC in C57BL/6 mouse at 10 mg/kg, po; format: ADME, organism-based; design: dose 10 mg/kg, route oral; conditions: in vivo
Mus musculus [2] = experiment: Dose normalized AUC (0 to t) in C57BL/6 mouse at 10 mg/kg, po; format: ADME, organism-based; design: dose 10 mg/kg, route oral; conditions: in vivo

Row | AUC/dose (Mus musculus [1]) | AUCt/dose (Mus musculus [2]) | SMILES
1 | 634 ng·h/mL/mg/kg |  | Cc1cccnc1CN1CCC2(CC1)CCN(c1ccc(-c3ccc(C(=O)O)cc3)cc1)C2=O
2 |  | 22.6 ng·h/mL/mg/kg | Cc1cc(CCC(=O)O)cnc1CN1CCC2(CC1)CCN(c1ccc(-c3ccccc3)cc1)C2=O
